# Marks after values point to notes of the source that are not given here.
# How the values were obtained:
# [1] = Hydrate formation (precipitation from water / storage at 95% RH, XRPD); format: physicochemical; conditions: for Hydrate formation (Yes/No): summary of solid forms of Compound (I), Table 2
# Text: To determine whether the Compound (I) hemiadipate are prone to form hydrates it was investigated if precipitation from water equilibrated over 7 days led to a new crystal form. In addition, it was explored if storage of Compound (I) hemiadipate at 95% RH for 5 months led to change in the crystal form.
# [2] = Dynamic Vapour Sorption (DVS), hygroscopicity; format: physicochemical; conditions: for Hygroscopic (Yes/No): summary of solid forms of Compound (I), Table 2; for hygroscopicity (DVS conclusion): RH 0% to 95%, 25° C.
# Text: The vapour sorption can be investigated by DVS analysis.
# The vapour sorption was investigated by DVS analysis.
# [3] = Solvate formation (shake-flask precipitation in organic solvents, XRPD); format: physicochemical; conditions: 16 organic solvents, equilibration for 4 days
# Text: To determine whether the Compound (I) hemiadipate forms solvates it was investigated if solvate formation could be observed from precipitation in different organic solvents after equilibration for 4 days in the shake-flask method: Compound (I) hemiadipate was precipitated in various organic solvents from a 1:1 mixture of Compound (I) and adipic acid. The tested solvents were: acetone, acetonitrile, methanol, ethanol, 1-propanol, 2-propanol, 1-butanol, 2-butanol, ethyl acetate, isopropyl acetate, methyl isobutyl ketone, tetrahydrofuran, diethylether, N-methylpyrrolidone, dichloromethane, and n-heptane.
# [4] = Intrinsic Dissolution Rate (IDR); format: physicochemical; conditions: 37° C., 10 mg tablet, duplicates
# Protocol: Tablets of 10 mg Compound (I) (free base or hemiadipate) were pressed and put into a micro dissolution chamber. It was subsequently measured how fast the substance was dissolved from the well-defined surface of the tablet into the solvent. The length of a full dissolution experiment was 20 min and the IDR was calculated in the range 1-2.5 min, determined as the slope of the dissolution profile in that specific range. The experiment at pH 2 was performed in 0.01 N HCl, at pH 5 in 50 mM acetate buffer and at pH 6.8 in 50 mM phosphate buffer, respectively, all at 37° C. All experiments were performed in duplicates.
# Where the tablet was not fully dissolved after end of experiment, the surface was examined by XRPD, to identify if any changes of solid form have occurred during the experiment.
# [5] = test system: rats; assay: Conditioned Avoidance Response (CAR) in rats, high dopamine state; format: in vivo
# Text: The inventors of the present invention put forward the hypothesis that many patients with exacerbated positive symptoms can be expected to have increased striatal dopamine levels. Since the dopamine receptors regulate the dopamine signal by controlling cAMP synthesis and PDE10A regulates the gain of this signal by controlling cAMP degradation, the effect of PDE10A inhibition might be altered in conditions with increased striatal dopamine tonus, such as found in patients with prominent positive symptoms. To investigate this further the effect of compounds of the invention were tested in the CAR assay in rats that were co-dosed with a low dose of d-amphetamine (0.20-0.25 mg/kg) to induce a high dopamine state (FIG. 4). […] Compound (I) was tested alone and in combination with a low dose d-amphetamine to induce a high dopamine state. The efficacy was measured as the mean number of avoidances and results are depicted as mean+/−SEM. […] Bars represent the following dose groups (left to right): 1) Vehicle; 2) d-amphetamine (0.2 mg/kg); 3) Compound (I) (0.6 mg/kg); 4) Compound (I) (0.3 mg/kg)+d-amphetamine (0.2 mg/kg); 5) Compound (I) (0.6 mg/kg)+d-amphetamine (0.2 mg/kg); and 6) Compound (I) (3.0 mg/kg)+d-amphetamine (0.2 mg/kg). ** p<0.01 compared to vehicle. ns=non-significant.
Molecule,Hydrate formation (Yes/No) [1],Hygroscopic (Yes/No) [2],further results
O=C(O)CCC(=O)C(=O)O [2-oxoglutarate],Yes,Yes,–
"Cc1ncc(C)n2nc(CCc3nc(-c4ccccc4)cn3C)nc12 [Compound (I) hemiadipate, 5,8-Dimethyl-2-[2-(1-methyl-4-phenyl-1H-imidazol-2-yl)-ethyl]-[1,2,4]triazolo[1,5-a]pyrazine hemiadipate]",No,No,"change of crystal form after storage at 95% RH ([1]; 95% RH for 5 months, XRPD): had not changed from the original form; change of crystal form after precipitation from water ([1]; water, equilibrated over 7 days, XRPD): had not changed from the original form; solvate formation [3]: does not form solvates; IDR Average ([4]; pH 2, 0.01 N HCl): >2* mg/cm^2 × min; IDR Average ([4]; pH 5, 50 mM acetate buffer): 0.3 mg/cm^2 × min; IDR Average ([4]; pH 6.8, 50 mM phosphate buffer): 0.04 mg/cm^2 × min; vapour sorption ([2]; DVS, 95% RH at 25° C.): less than 0.1%; hygroscopicity (DVS conclusion) ([2]; DVS): non-hygroscopic"
"Cc1ncc(C)n2nc(CCc3nc(-c4ccccc4)cn3C)nc12 [Compound (I), 5,8-Dimethyl-2-[2-(1-methyl-4-phenyl-1H-imidazol-2-yl)-ethyl]-[1,2,4]triazolo[1,5-a]pyrazine]",–,–,"Hydrate formation (Yes/No) ([1]; listed as Free base): Yes; effect on CAR (mean number of avoidances), combined with d-amphetamine ([5]; Compound (I) 0.3, 0.6, 3.0 mg/kg + d-amphetamine 0.2 mg/kg (high dopamine state)): this effect was abolished; effect on CAR (mean number of avoidances), dosed alone ([5]; Compound (I) alone (0.6 mg/kg), ** p<0.01 compared to vehicle): reduced CAR; IDR Average ([4]; pH 2, 0.01 N HCl, listed as Compound (I) free base): 1.45 mg/cm^2 × min; IDR Average ([4]; pH 5, 50 mM acetate buffer, listed as Compound (I) free base): 0.101 mg/cm^2 × min; IDR Average ([4]; pH 6.8, 50 mM phosphate buffer, listed as Compound (I) free base): 0.025 mg/cm^2 × min; hygroscopicity (DVS conclusion) ([2]; DVS, listed as free base): very hygroscopic; Hygroscopic (Yes/No) ([2]; listed as Free base): Yes"
Cc1ncc(C)n2nc(CCc3nc(-c4ccccc4)cn3C)nc12.O=C[C@H](O)[C@@H](O)[C@H](O)[C@H](O)C(=O)O [D-glucoronate],Yes,Yes,–
O=P(O)(O)O [Dihydrogen Phosphate],Yes,–,–
Br.Cc1ncc(C)n2nc(CCc3nc(-c4ccccc4)cn3C)nc12 [Hydrogen Bromide],Yes,Yes,–
Cl [Hydrogen Chloride],Yes,Yes,–
Cc1ncc(C)n2nc(CCc3nc(-c4ccccc4)cn3C)nc12.O=S(=O)(O)O [Hydrogen sulphate],Yes,–,–
Citrate,Yes,Yes,–
Fumarate,Yes,–,–
Glutarate,Yes,–,–
L(+)-tartrate,Yes,–,–
L(−)-malate,Yes,Yes,–
Maleate,Yes,Yes,–
Malonate,Yes,Yes,–
Oxalate,Yes,Yes,–
Tosylate,Yes,Yes,–
